Key:
[1] = system: HIV; assay: Anti-HIV activity in CEM cells; format: cell-based; conditions: for EC50: Human immunodeficiency virus 1, CCRF-CEM, read-out: Antiviral Activity EC50
Description: (§1) The anti-HIV activity of L-2′-A-5-FddC and L-3′-A-5-FddC was tested in CEM and PBM cells.

[2] = Cytotoxicity in CEM cells; format: cell-based; conditions: human
[3] = system: HIV-1 (strain LAV); assay: Inhibition of HIV-1 replication in human PBM cells (reverse transcriptase readout); format: cell-based; conditions: for EC50: Human immunodeficiency virus 1, PBMC, 144 h, HIV-1 strain LAV, day 6, read-out: Antiviral Activity EC50
Description: Antiviral compositions can be screened in vitro for inhibition of HIV by various experimental techniques. One such technique involves measuring the inhibition of viral replication in human peripheral blood mononuclear (PBM) cells. The amount of virus produced is determined by measuring the quantity of virus-coded reverse transcriptase (RT), an enzyme found in retroviruses, that is present in the cell culture medium.
Three-day-old phytohemagglutinin-stimulated PBM cells (10^6 cells/ml) from hepatitis B and HIV-1 seronegative healthy donors were infected with HIV-1 (strain LAV) at a concentration of about 100 times the 50% tissue culture infectious done (TICD 50) per ml and cultured in the presence and absence of various concentrations of antiviral compounds.
Approximately one hour after infection, the medium, with the compound to be tested (2 times the final concentration in medium) or without compound, was added to the flasks (5 ml; final volume 10 ml). AZT was used as a positive control. The cells were exposed to the virus (about 2×10^5 dpm/ml, as determined by reverse transcriptase assay ) and then placed in a CO2 incubator. HIV-1 (strain LAV) was obtained from the Centers for Disease Control, Atlanta, Ga. The methods used for culturing the PBM cells, harvesting the virus and determining the reverse transcriptase activity were those described by McDougal et al. (J. Immun. Meth. 76, 171-183, 1985) and Spira et al., (J. Clin. Meth. 25, 97-99, 1987), except that fungizone was not included in the medium (see Schinazi, et al., Antimicrob. Agents Chemother. 32, 1784-1787 (1988); Antimicrob. Agents Chemother., 34: 1061-1067 (1990)).
On day 6, the cells and supernatant were transferred to a 15 ml tube and centrifuged at about 900 g for 10 minutes. Five ml of supernatant were removed and the virus was concentrated by centrifugation at 40,000 rpm for 30 minutes (Beckman 70.1 Ti rotor). The solubilized virus pellet was processed for determination of the levels of reverse transcriptase. Results are expressed in dpm/ml of sampled supernatant. Virus from smaller volumes of supernatant (1 ml) can also be concentrated by centrifugation prior to solubilization and determination of reverse transcriptase levels.
The median effective (EC50) concentration was determined by the median effect method (Antimicrob. Agents Chemother. 30, 491-498 (1986). Briefly, the percent inhibition of virus, as determined from measurements of reverse transcriptase, is plotted versus the micromolar concentration of compound. The EC50 is the concentration of compound at which ther is a 50% inhibition of viral growth.
as §1

[4] = Cytotoxicity in uninfected human PBM cells (trypan blue cell count); format: cell-based; conditions: mitogen-stimulated uninfected human PBM cells, six days
Description: Mitogen stimulated uninfected human PBM cells (3.8×10^5 cells/ml) were cultured in the presence and absence of drug under similar conditions as those used for the antiviral assay described above. The cells were counted after six days using a hemacytometer and the trypan blue exclusion method, as described by Schinazi et al., Antimicrobial Agents and Chemotherapy, 22(3), 499 (1982). The IC50 is the concentration of compound which inhibits 50% of normal cell growth. The anti-HIV activity of L-2′-A-5-FddC and L-3′-A-5-FddC was tested in CEM and PBM cells.

| EC50 [1] | EC50 [3] | melting point | SMILES | Selectivity Index IC50/EC50 [1] | IC50 [2] | Selectivity Index IC50/EC50 [3] | IC50 at 6 days [4] |
| --- | --- | --- | --- | --- | --- | --- | --- |
| 3900 nM | 1000 nM | 219 to 221 °C | [N-]=[N+]=NC1C[C@H](CO)O[C@@H]1n1cc(F)c(N)nc1=O (stereo partly drawn) [L-2′-A-5-FddC, β-L-(2′-azido)-2′,3′-dideoxy-5-fluorocytosine] | >30 | > 100000 nM | >100 | > 100000 nM |
| 290 nM | 50 nM | – | [N-]=[N+]=NC1C[C@@H](n2cc(F)c(N)nc2=O)O[C@H]1CO (stereo partly drawn) [L-3′-A-5-FddC, β-L-(3′-azido)-2′,3′-dideoxy-5-fluorocytosine] | >344 | > 100000 nM | >2647 | > 100000 nM |

— US6896900B2, “β-L-2'-deoxy-nucleosides for the treatment of HIV infection” (Emory University, priority 1998, dated 2005)
